Data on one substance can be found in patent US20130109049A1, “Method of Establishing a Fungal Nail Infection” (NOVABIOTICS LIMITED, priority 2009, published 2013).

Assay [1] relates to Candida. As to the kind of experiment: Ex vivo human nail fragment model, treatment of Candida infection. It counts as cell-based. As to conditions: Experiments 6 and 7; 10% (w/v); 14 d or 28 d, daily. An excerpt: (§1) Trichophyton rubrum strain NCPF0118 was obtained from the National Collection of Pathogenic Fungi, Bristol, UK. Clinical isolates of T. rubrum DM2006 1661, T. rubrum DM2006 1358, T. mentagrophytes DM2006 1503, T. mentagrophytes DM2006 1498 were isolated from patients suffering a range of tinea infections and were purchased from Professor Michel Monod (Service de Dermatologie, Université de Lausanne, Switzerland). Clinical isolates of Candida samples were also obtained from patients suffering from Candidal infection.
The procedure was carried out as described for Example 1 above with modifications to the vehicle, and fungal strains used. Each nail was inoculated with 10 μl of a spore suspension of Candida. Following inoculation the nails were treated with 10% (w/v) Novexatin® (NP213) in a vehicle solution of 50% (w/v) PEG 8000 plus 20% (w/v) urea; 10% (w/v) NP339 in a vehicle solution of 50% (w/v) PEG 8000 plus 20% (w/v) urea; 10% (w/v) NP339 in a vehicle solution of water; a control solution of 50% (w/v) PEG 8000 plus 20% (w/v) urea; a control solution of water; a solution of 16 μg/ml Itraconazole® and 1.6% (w/v) DMSO in a vehicle solution of water and a control solution of 1.6% (w/v) DMSO. As for Experiment 1 above, nail fragments were treated daily for up to 28 days. […]
At the end of the treatment period, the nail fragments were placed in sterile 2 ml microcentrifuge tubes containing 450 μl of a suspension broth consisting of Sabouraud's Liquid Medium, pH 5.6, containing approximately 100 mg of sterile zirconia beads (0.5 mm diameter). […] Colonies were counted on dishes that contained between 20 and 200 colonies in total, and the total number of cfu present in each sample was calculated. […] The counts were corrected for the surface area of the nails studied to give cfu/cm^2, transformed to log10 and means and standard errors of the mean were calculated using GraphPad Prism 4 (GraphPad, San Diego, Calif.). […] When very low numbers of colonies were detected, as in Experiment 3, the calculated cfu values are shown in order to indicate trends.

Assay [2] concerns four clinical isolates of Trichophyton spp. Briefly: In vitro MIC testing of clinical isolates. In kind it is cell-based. The source says: However, this difference in activity is not reflected in human nail tissue, which should be considered a more appropriate model for activity testing for antimicrobials of this type.
Assay [3] has as its system T. rubrum NCPF0118. As to the kind of experiment: In vitro MIC100 testing. In kind it is cell-based, Trichophyton rubrum. As to conditions: versus T. rubrum NCPF0118; revealed in separate tests.
In assay [4] the test system is clinical isolates T. rubrum DM 2006 1661, T. rubrum DM 2006 1358, T. mentagrophytes DM 2006 1503, T. mentagrophytes DM 2006 1498. Briefly: Ex vivo human nail fragment model, treatment, clinical isolates of Trichophyton spp. In kind it is cell-based. The note with it: Experiment 3.
Source text: as §1
The experiment was performed as described in Experiment 1 with modifications relating to the vehicle, concentrations and fungal strains used. […]
At the end of the treatment period, the nail fragments were placed in sterile 2 ml microcentrifuge tubes containing 450 μl of a suspension broth consisting of Sabouraud's Liquid Medium, pH 5.6, containing approximately 100 mg of sterile zirconia beads (0.5 mm diameter). […] Colonies were counted on dishes that contained between 20 and 200 colonies in total, and the total number of cfu present in each sample was calculated. […] The counts were corrected for the surface area of the nails studied to give cfu/cm^2, transformed to log10 and means and standard errors of the mean were calculated using GraphPad Prism 4 (GraphPad, San Diego, Calif.). […]

On to “7 to 200-mer (SEQ ID NO: 3) polyarginine [Novexatin® (NP213)]”, for which, in assay [1], the “recoverable fungal growth after treatment” value is “no recoverable fungal growth”. Moreover, the “susceptibility of clinical isolates compared to T. rubrum NCPF0118” value in assay [2] was “less susceptible”. Moreover, the “concentration equal to 100× the MIC100” value in assay [3] is recorded as ~10 % (w/v). Also, in assay [4] (0%, 5%, 10% (w/v) in 50% PEG 8000 + 20% urea), the “effect on survival of clinical isolates (dose dependence)” value is given as “dose-dependent”. The “effectiveness of treatment compared with T. rubrum NCPF0118” value in assay [4] (four clinical isolates) is recorded as “as effective as that observed when T. rubrum NCPF0118 was used”.
